Consider eleven compounds from patent US20210392882A1, “METHODS AND COMPOSITIONS FOR IMPROVED INSECT REPELLENCY” (Board of Trustees of Michigan State University, priority 2020, published 2021).

The test system of test [1] is sbt-1 sensilla (sbt-1A and sbt-1B neurons). The experiment in a line: Single sensillum recording (SSR) of antennal sbt-1 sensilla. It counts as cell-based, Aedes aegypti. The following applies: for response of sbt-1B neurons in AaOr31−/− mosquitoes: AaOr31 knockout, specificity control; for response of sbt-1B neuron / response of sbt-1A neuron: wild-type ROCK; for response of sbt-1B neuron: pyrethrum at 10^−2; for response of sbt-1A neurons in AaOr31−/− mosquitoes: AaOr31 knockout vs ROCK, 10^−2 dilution, FIG. 3A; for response of sbt-1A neuron: pyrethrum and EBF at 10^−2 dilution. On the procedure:
(§1) Single sensilla recording was conducted as described in Liu et al. J Insect Physiol 59, 1169-1177 (2013). Female mosquitoes 4 days after eclosion were anaesthetized (2-3 min on ice) and mounted on a microscope slide (76×26 mm). An antenna was fixed using a double-sided tape to a cover slip resting on a small ball of dental wax to facilitate manipulation. The cover slip was placed at an appropriate angle to the mosquito head. Once mounted, the specimen was placed under a microscope (Nikon SMA645, Japan) and the antenna viewed at a high magnification (1000×). Two tungsten microelectrodes were sharpened in 10% KNO2 at 2-10 V. The reference electrode, which was connected to ground, was inserted into the compound eye of the mosquito and the other was connected to the preamplifier (10×, Syntech, Kirchzarten, Germany) and inserted into the shaft of an olfactory sensillum to complete the electrical circuit to extracellularly record olfactory receptor neuron potentials (Den Otter et al., Journal of Insect Physiology 26, 465-472 (1980)). Controlled manipulation of the electrodes was performed using a micromanipulator (Burleigh PCS-6000, CA). The preamplifier was connected to an analog-to-digital signal converter (IDAC-4, Syntech, Germany), which in turn was connected to a computer for signal recording and visualization. The activity of co-located olfactory receptor neurons in each sensillum was assessed based on the differences in spike amplitude. The large spike amplitude was designated as cell A and the olfactory receptor neuron with the small spike amplitude was designated cell B (Ghaninia et al. Eur J Neurosci 26, 1611-1623 (2007)). Signals were recorded for 10 seconds starting 1 second before stimulation, and the action potentials were counted off-line over a 500-ms period before and after stimulation. The spontaneous firing rates observed in the preceding 500 milliseconds (ms) were subtracted from the total spike rates observed during the 500-ms stimulation, and counts were recorded in units of spikes/second.
(§2) Eighteen compounds besides pyrethrum from different chemical classes were selected for functional classification of olfactory sensilla with various morphological shapes (Extended Data FIG. 2). Each compound was diluted in dimethyl sulfoxide (DMSO) to a stock solution with a concentration of 100 μg/μl. Subsequently, a series of 10-fold dilutions were made from each of the stock solutions for each compound tested. For each dilution, a 10 μl portion was dispersed onto a filter paper strip (4×10 mm), which was then inserted into a Pasteur pipette to create the stimulus cartridge. A sample containing the solvent alone served as control. The airflow across the antennae was maintained constant at a 20 ml/second throughout the experiment. Purified and humidified air was delivered to the preparation through a glass tube (10-mm inner diameter) perforated by a small hole 10 cm away from the end of the tube, into which the tip of the Pasteur pipette could be inserted. The stimulus was delivered to the sensilla by inserting the tip of the stimulus cartridge into this hole and diverting a portion of the air stream (0.5 l/min) to flow through the stimulus cartridge for 500 ms using a stimulus controller (Syntech, Germany). The distance between the end of the glass tube and the antennae was ≤1 cm. The number of spikes/second was obtained by averaging the results for each sensillum/compound combination.
(§3) To identify which mosquito olfactory receptor neuron(s) responds to pyrethrum, single sensillum recordings (SSR) were performed of Ae. aegypti antennal olfactory sensilla in response to a panel of odorants (FIG. 2C-2L), most of which are plant-derived mosquito repellents, such as pyrethrum, (±)-citronellal, geranyl acetate and (−)-borneol. Three responsive sst sensilla were identified, sst1-3, and six responsive sbt sensilla, sbt1-6, based on their response profiles to the odorants in the panel (FIG. 2B, 2D-2L).

For test [2], the system named is Ae. aegypti mosquitoes. The test is described as follows: Hand-in-cage spatial repellency assay. The following applies: for repellency in AaOr31−/− mosquitoes compared to wild-type mosquitoes: ROCK wild-type; for effect of (E)-β-farnesene on repellency of the compound: EBF 4 ppm, P-I 1000 ppm, P-II 1000 ppm, (−)-borneol 100 ppm; for repellency in pyrethrum/pyrethroid resistant KDR:ROCK mosquitoes compared to ROCK: FIG. 4G. It counts as in vivo, Aedes aegypti. The source says: The hand-in-cage assay employed was similar to the hand-in-glove assay described by Boyle et al. (bioRxiv, 060178 (2016)). The setup for the hand-in-cage assay includes a 30 cm×30 cm×30 cm mosquito cage (BioQuip, Rancho Dominguea, Calif.), with a mounted digital camera and a human hand in a modified glove with a screened window. The digital camera (e-con Systems Inc, San Jose, Calif., model: e-CAM51A) for video recording is mounted on the cage top and connected to a laptop computer. A nitrile rubber glove (Ansell Protective Products, Coshoton, Ohio, part number: 37-155) was cut on the back side of the glove to create a window (6 cm×5 cm) (FIG. 1A). A piece of magnetic frame (slightly larger than the dimension of the window) was glued onto the cut window which was used as a base for stacking more magnetic window frames (FIG. 1A; further explained below). One piece of test compound-treated polyester netting (Shason Textile Inc., part number: WS-B532-111, white; slightly larger than the dimension of the window) was placed on this fixed magnetic frame, which was ˜3.0 mm above the glove. The second piece of the netting was untreated and placed ˜6.0 mm above the treated net using a stack of four magnetic frames. The stacked magnetic frames were further secured with a binder clip. The stacking creates sufficient space between the treated net and the untreated net so that mosquitoes that land on the open window were not able to contact treated net, or to contact and pierce skin of a hand in the glove. The hand makes no contact with the treated net.
The assay was run in a room with humidity between around 50% and temperature between 27° C. to 30° C. Twenty-four hours before an assay, four to nine days-old females (about 40, mated, non-blood fed) were transferred into a mosquito cage. The cage was kept in an incubator where mosquitoes were provided only with water in a cotton ball placed on the top of the cage. Immediately before the assay, one researcher treated pieces of netting with 500 μl test compound dissolved in acetone in a glass Petri dish in an adjacent room. Acetone served a control. After letting acetone evaporate (˜7 min), the researcher assembled and put on a modified glove. In the meantime, a second researcher or a lab assistant transferred the prepared cage from the incubator to a bench in the assay room. Both personnel avoided use of any hand lotions and cosmetic products before an assay and wore white lab coats and gloves during the assay. The hand with the modified glove was introduced into the cage to initiate the assay. Mosquitoes landing on the test window was recorded by the digital camera for five minutes. The number of mosquitoes landing during the second to fifth minutes was counted and recorded. For each cage, solvent (acetone) control was tested first and then followed with a treatment. Data from any cage that gave a low landing number in a control trial were discarded. The time interval of assays between control and treatment was at least 1.5 hours, allowing the mosquitoes to fully recover and residual vapors from experiments to be ventilated out of the room. Percentage repellency was determined for each cage using the following equation:
Percentage repellency=[1−(cumulative number of mosquitoes landed on the window of treatment/cumulative number of mosquitoes landed on the window of solvent treatment)]×100).
The spatial repellency of pyrethrum was examined using a hand-in-cage assay (Ogoma et al. PLoS neglected tropical diseases 11, e0005455 (2017)). In this behavioral assay, mosquitoes were attracted to a human hand in a modified glove (FIG. 1A) with a screened window on the back of the glove. The mosquitoes landed on a piece of control mesh secured on the top of the window. Between the control mesh and the hand is another mesh treated with a test compound, with which mosquitoes cannot make direct contact (FIG. 1A).

Test [3] deals with AgOr31. The test is described as follows: SSR of Drosophila ab3A empty neurons expressing AgOr31. It counts as cell-based, Anopheles gambiae. The following applies: 10^−2 dilution. The text has this:
The method of Carey et al. (Nature 464, 66-71 (2010)) was used for heterologous expression of AgORs in the ab3 empty neurons. The Gal4 line (w; Cyo/Δhalo; Or22a-Gal4) was kindly provided by John Carlson (Yale Univ.), and 50 UAS-AgOr lines were obtained from the Bloomington Drosophila stock center.
Having identified sbt-1 and sst-1 as primary olfactory receptor neurons that are responsive to pyrethrum, experiments were designed to identify the specific odorant receptors (Ors) that are involved in these responses. An indexed library of An. gambiae Ors (AgOrs) (Carey et al., Nature 464, 66-71 (2010)) was used. Each of the 50 AgOrs was expressed in the “ab3 empty neuron” system of Drosophila melanogaster, in which the endogenous odorant receptor gene, Or22a, in the ab3 sensillum was deleted (FIG. 2N-2O, FIG. 3A).
Single sensillum recordings (SSR) were then examined from the resulting chimera ab3 sensillum that expressed the individual AgOrs in the D. melanogaster antenna when these flies were exposed to the same panel of odorants used in the analysis of Ae. aegypti sensilla. […] The odorant response profile of the sbt-1A neuron matches remarkably well with that of AgOr31 (FIGS. 2C, 2O).

Test [4] has as its system sst-1 sensilla (sst-1A and sst-1B neurons). The experiment in a line: Single sensillum recording (SSR) of antennal sst-1 sensilla. The following applies: for response of sst-1A neurons: ROCK, 10^−1 dilution, FIG. 4A; for response of sst-1A neuron: wild-type ROCK, pyrethrum at 10^−2. It counts as cell-based, Aedes aegypti. On the procedure:
as §1, §2, §3

The mark [5] stands for this setting: 10^−3 dilution, Orlando (wild-type), FIG. 4B.

SMILES strings stand for the structures.

On to `Cc1ccccc1` [toluene], for which, in test [1], the “response of sbt-1B neurons in AaOr31−/− mosquitoes” value was “remained intact” and the “response of sbt-1B neuron” value was “highly sensitive”.
For `CC(=O)OC/C=C(\C)CCC=C(C)C` [geranyl acetate], the “repellency in AaOr31−/− mosquitoes compared to wild-type mosquitoes” value (shortened to “repellency … compared to wild-type mosquitoes”) in test [2] (10^−2 dilution, FIG. 3B) is “significantly reduced”. Further, in test [1], the “response of sbt-1A neurons in AaOr31−/− mosquitoes” value (shortened to “response of sbt-1A neurons”) is on record as “completely abolished” and the “response of sbt-1A neuron” value is “strong excitatory responses”.
As for `C=CC(=C)CC/C=C(\C)CCC=C(C)C` [(E)-β-farnesene], the repellency alone entry is listed as “did not elicit repellency” in test [2] (4 ppm and 10 ppm, ROCK or AaOr31−/− mosquitoes, FIG. 4H); “no repellency” in test [2] (1000 ppm or lower concentrations, FIG. 4H); “did not exhibit repellency” in test [2] (at 4 ppm or below). Moreover, in test [2] (10^−2 dilution, FIG. 3B), the “repellency … compared to wild-type mosquitoes” value is “significantly reduced”. Also, in test [2] (10^−2 dilution, ROCK, FIG. 3B), the spatial repellency result is on record as “elicited spatial repellency”. In test [2] (EBF 4 ppm with P-II 1000 ppm, FIG. 4D), the “repellency enhancement by (E)-β-farnesene in AaOr31−/− mosquitoes” value is “abolished”. Besides, the “activation of AgOr31” value in test [3] was “activated”. In addition, in test [1], the “response of sbt-1A neurons” value was “completely abolished”. Besides, the “response of sbt-1A neuron” value in test [1] is “activated”.
Take `C=C/C=C\CC1=C(C)[C@@H](OC(=O)[C@@H]2[C@@H](C=C(C)C)C2(C)C)CC1=O` [pyrethrin I]: in test [4], the “response of sst-1A neurons” value is reported as “activated”. In test [2] (1 ppm, ROCK, FIG. 4E), the repellency alone result is on record as “did not elicit repellency”. For the same compound, the “repellency in orco−/− mosquitoes compared to Orlando” value in test [2] (10^−3 dilution, FIG. 4B) is “significantly reduced”. The spatial repellency result in test [2] (setting [5]) is given as “elicited spatial repellency”. In test [2] (ROCK, FIG. 4D), the “effect of (E)-β-farnesene on repellency of the compound” value is given as “synergized”. Besides, the “repellency in pyrethrum/pyrethroid resistant KDR:ROCK mosquitoes compared to ROCK” value in test [2] is on record as “reduced”. Moreover, the “synergism with (E)-β-farnesene in repellency” value in test [2] (pyrethrin I 1 ppm, EBF 10 ppm, ROCK, FIG. 4E) is on record as “still evident”.
Turning to `CC12CCC(CC1)C(C)(C)O2` [eucalyptol], the “response of sst-1A neuron” value in test [4] is on record as “activated”.
Consider `c1ccc2[nH]ccc2c1` [indole], for which, in test [1], the “response of sbt-1B neurons in AaOr31−/− mosquitoes” value is recorded as “remained intact” and the “response of sbt-1B neuron” value is recorded as “highly sensitive”.
Regarding `CC12CCC(CC1=O)C2(C)C` (centres unmarked) [camphor], the “response of sst-1A neuron” value in test [4] is recorded as “activated”.
As for `C=C/C=C\CC1=C(C)[C@@H](OC(=O)[C@@H]2[C@@H](/C=C(\C)C(=O)OC)C2(C)C)CC1=O` [pyrethrin II], in test [4], the “response of sst-1A neurons” value is given as “activated”. Moreover, the “repellency in orco−/− mosquitoes compared to Orlando” value in test [2] (10^−3 dilution, FIG. 4B) is reported as “significantly reduced”. For the same compound, the spatial repellency entry in test [2] (setting [5]) is recorded as “elicited spatial repellency”. The “effect of (E)-β-farnesene on repellency of the compound” value in test [2] (ROCK, FIG. 4D) is “synergized”. Also, the “repellency in pyrethrum/pyrethroid resistant KDR:ROCK mosquitoes compared to ROCK” value in test [2] was “reduced”.
Regarding `CCCCCCCCCCCCCCCC(=O)OCC` [ethyl palmitate], the “activation of AgOr31” value in test [3] is listed as “None”. In test [1], the “response of sbt-1A neuron” value is “None”.
For the compound `CCCCC/C=C\C/C=C\CCCCCCCC(=O)OCC` [ethyl linoleate], the “activation of AgOr31” value in test [3] is listed as “None”. In addition, the “response of sbt-1A neuron” value in test [1] is recorded as “None”.
Turning to `CC(C)=CCCC(C)CC=O` (racemic) [(±)-citronellal], the “response of sst-1A neuron” value in test [4] is listed as “activated”. In addition, in test [2] (10^−2 dilution, FIG. 3B), the “repellency … compared to wild-type mosquitoes” value is recorded as “significantly reduced”. For the same compound, in test [1], the “response of sbt-1A neurons” value is “completely abolished” and the “response of sbt-1A neuron” value was “strong excitatory responses”.
